# PubChem BioAssay AID2745 (NMMLSC, 2010)
# Several values for one entry are separate records, joined by “and”; a condition that tells them apart may be missing. Equal values may be shown once. Activity calls are given as the source filed them. No rule for the calls is given here.
# Assay: LAP4-GFP modulation potency in yeast, dose response, cell-based, MLPCN hits, flow cytometry (AID 2745);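 also: yeast exposed to compound for three hours at 30 degrees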
# Conditions: S. cerevisiae LAP4-GFP reporter, flow cytometry fluorescence; at 33 µM (top of the series)
row,Structure (SMILES),LAP4-GFP fluorescence (kMESF)
1,O=C(/C=C/c1ccc(Br)cc1)NC(=S)NNC(=O)c1ccco1,5.87 kMESF (inactive)
2,Cc1cc(NC(c2ccc(Cl)cc2)c2ccc3cccnc3c2O)no1 (stereo not given),11.2 kMESF (inactive)
3,Cc1ccc(S(=O)(=O)N2CC(C(=O)O)=CC[C@H]2c2ccc(Cl)cc2)cc1,4.05 kMESF (inactive)
4,O=C1C=CC(=O)N1c1ccc(OC(F)F)cc1,4.2 kMESF (inactive)
5,CCN(CC)c1ccc(/C=C2/C(=O)c3ccc(C(=O)O)cc3C2=O)cc1,13.8 kMESF (inactive)
6,COc1ccccc1N=Cc1nc(-c2ccccc2)oc1OC(C)=O,8.6 kMESF (inactive)
7,O=C1c2cccc3c([N+](=O)[O-])ccc(c23)C(=O)N1O,3.64 kMESF (inactive)
8,COc1cc(/C=C2\C(=O)ON=C2c2ccccc2)cc(OC)c1OC,6.41 kMESF (inactive)
9,C#CCOCCOCCOCCNc1nc(N2CCN(C(=O)CCCCCCCCCCNC(=O)[C@H](CCCCN)n3cc(CCO)nn3)CC2)nc(N2CCN(C(=O)CCCCCCCCCCNC(=O)[C@H](CCCN=C(N)N)n3cc(C[C@@H](C)CC)nn3)CC2)n1,6.17 kMESF (inactive)
10,COc1ccc(C2(C)ON(c3ccccc3C(F)(F)F)C2=O)cc1 (stereo not given),6.61 kMESF (inactive)
11,Nc1ccc2ccc3cccc[n+]3c2c1,10.3 kMESF (inactive)
12,O=C(OCC(=O)N1CCN(C(=O)c2ccco2)CC1)c1cc(-c2cccc(Br)c2)nc2ccccc12,9.27 kMESF (inactive)
13,Cc1cc(C)c(S(=O)(=O)N2CCC(C(=O)NCc3ccc(Cl)cc3Cl)CC2)c(C)c1,4.35 kMESF (inactive)
14,CCC(=O)Nc1ccc(NC(=O)c2cc3ccccc3o2)c(OC)c1,3.41 kMESF (inactive)
15,Oc1ccc(N=Nc2ccccc2)o1,18.8 kMESF (inactive)
16,Cc1ccc2[nH]cc(/C=C/c3cc[n+](C)cc3)c2c1,5.34 kMESF (inactive)
17,O=c1oc(/C=C/c2ccc([N+](=O)[O-])s2)nc2ccccc12,12.6 kMESF (inactive)
18,NC(=O)COc1ccc(C(=O)/C=C2/C(=O)Nc3ccccc32)cc1,6.78 kMESF (inactive)
19,O=C(O)c1ccc(COc2ccccc2C=C2C(=O)c3ccccc3C2=O)cc1,4.11 kMESF (inactive)
20,CCOc1cc(C=C2C(=O)c3ccccc3C2=O)ccc1OCC(=O)Nc1ccc(C)cc1,3.87 kMESF (inactive)

row,Structure (SMILES),LAP4-GFP fluorescence (kMESF)
1,O=C(/C=C/c1cccc([N+](=O)[O-])c1)c1ccc([N+](=O)[O-])o1,2.78 kMESF (inactive)
2,Oc1c(CN2CCCCC2)cc(Br)c2cccnc12,16 kMESF (inactive)
3,CC(C)C(=O)NC(c1cccs1)c1cc([N+](=O)[O-])c2cccnc2c1O (stereo not given),10.5 kMESF (inactive)
4,Cc1ccccc1N1C(=O)C(Cl)=C(N2CCN(c3ccccc3)CC2)C1=O,3.41 kMESF (inactive)
5,COc1cccc2c(=O)c(C(=O)NCc3cccs3)c[nH]c12,2.13 kMESF (inactive)
6,Nc1nc(N)c2nc(CNc3ccc(C(=O)NC(CCC(=O)O)C(=O)O)cc3)cnc2n1 (stereo not given),3.13 kMESF (inactive)
7,O=C(/C=C/Sc1ncn[nH]1)c1ccc(Cl)cc1,15.9 kMESF (inactive)
8,O=C(C#Cc1cccc([N+](=O)[O-])c1)c1ccccc1,8.01 kMESF (inactive)
9,O=C(OCC(=O)N1CCN(C(=O)c2ccco2)CC1)c1cc(-c2ccccc2)nc2ccccc12,10.4 kMESF (inactive) and 6.1 kMESF (inactive)
10,COc1ccc(N=Cc2nc(-c3ccccc3)oc2OC(=O)c2ccccc2)cc1,4.09 kMESF (inactive)
11,O=c1cc(-c2ccccc2)cc(-c2ccccc2)n1O,5.91 kMESF (inactive)
12,Cc1ccc(C(=O)/C=C/C(=O)c2ccc(C)cc2)cc1,6.7 kMESF (inactive)
13,CC(OC(=O)c1ccco1)C(=O)Nc1nc(-c2ccccc2)cs1 (stereo not given),3.33 kMESF (inactive)
14,CC[C@H](C)/C=C(C)/C=C/C1=CC2=C(Cl)C(=O)[C@@](C)(OC(C)=O)C(=O)C2=CO1,0.86 kMESF (inactive)
15,N=C1/C(=C\c2coc3ccccc3c2=O)C(=O)N=C2SC(c3ccncc3)=NN12,-3.74 kMESF (inactive)
16,CCOc1ccc(N2C(=O)C(Cl)=C(Nc3ccccc3O)C2=O)cc1,5.81 kMESF (inactive)
17,O=C(O)c1ccn2c(C(=O)c3ccccc3)c(-c3ccccc3)cc2c1,7.25 kMESF (inactive)
18,CC(C)(C)c1cc(C(c2cccnc2)N2CCN(CCO)CC2)cc(C(C)(C)C)c1O (stereo not given),7.26 kMESF (inactive)
19,O=C(OCC(=O)N1CCN(C(=O)c2ccco2)CC1)c1cc(-c2ccc(F)cc2)nc2ccccc12,9.57 kMESF (inactive) and 4.75 kMESF (inactive)
20,O=C(Oc1oc(-c2ccco2)nc1C=Nc1ccccc1)c1ccoc1,8.01 kMESF (inactive)

row,Structure (SMILES),LAP4-GFP fluorescence (kMESF)
1,COc1ccc(N2C(=O)C(Cl)=C(Nc3c(C)n(C)n(-c4ccccc4)c3=O)C2=O)cc1,4.31 kMESF (inactive)
2,COc1ccc(NC2=C(Cl)C(=O)N(CCc3ccccc3)C2=O)cc1,5.81 kMESF (inactive)
3,O=C1C2C3C=CC(CO)(O3)C2C(=O)N1c1ccccc1-c1ccccc1 (stereo not given),5.75 kMESF (inactive)
4,CCCCc1ccc(/C=C2/C(=O)ON=C2c2ccccc2)s1,3.67 kMESF (inactive)
5,COc1cc(/C=C2\C(=O)ON=C2c2ccccc2)cc(Br)c1O,14.7 kMESF (inactive)
6,COc1ccc(CCNC2=C(Cl)C(=O)N(CCc3ccccc3)C2=O)cc1OC,3.31 kMESF (inactive)
7,Cc1cc(/C=C2/SC(=S)N(c3cccc(Cl)c3)C2=O)c(C)n1-c1cccnc1,10.5 kMESF (inactive)
8,CCOC(=O)Cn1cc(/C=C/[N+](=O)[O-])c2ccccc21,8.42 kMESF (inactive)
9,O=[N+]([O-])c1ccc(S(=O)(=O)c2ccccc2)nc1,9.63 kMESF (inactive)
10,Cc1ccccc1OCCOC(=O)c1ccc(S(=O)(=O)N2CCCC2)cc1,3.13 kMESF (inactive)
11,CC(C)[C@]1(c2ccc(Cl)cc2)ON(c2ccccc2C(F)(F)F)C1=O,3.43 kMESF (inactive)
12,COc1cc(NC(=O)c2ccc(C)cc2)ccc1NC(=O)c1cc2ccccc2o1,3.61 kMESF (inactive)
13,CCOC(=O)C(C(=O)OCC)C(C(=O)OCC)N1CCOCC1 (stereo not given),6.39 kMESF (inactive)
14,CC(C)CC(=O)NC(=S)Nc1nc(-c2ccccc2)cs1,3.44 kMESF (inactive)
15,COc1ccc(/C=C/C(=O)c2cc(Br)ccc(=O)c2O)cc1,-33.8 kMESF (inactive)
16,COc1ccccc1[C@]1(C)ON(c2ccccc2C(F)(F)F)C1=O,7.79 kMESF (inactive)
17,O=C(Nc1nnc(-c2ccc3c(c2)CCCC3)o1)c1ccc(Cl)cc1Cl,5.77 kMESF (inactive)
18,O=C(OCC(=O)N1CCN(C(=O)c2ccco2)CC1)c1cc(-c2ccc(Cl)c(Cl)c2Cl)nc2ccccc12,4.61 kMESF (inactive)
19,COc1ccc2c(c1)S/C(=C\C(=O)c1ccncc1)N2C,4.85 kMESF (inactive)
20,N/C(=N\OC(=O)c1ccccc1Cl)c1ccc(Cl)cc1,11.3 kMESF (inactive)
